Results published in paper PMC6315057, “Industrial scale high-throughput screening delivers multiple fast acting macrofilaricides” (Nature Communications, 2019).
Values after ≈ are worked out from the molar mass of the structure shown.

Key:
THP-1 cells = experiment: Mammalian cell viability counter-screen (CellTiter-Blue); format: cell-based, human; details: Homo sapiens, 48 h, read-out: HTS IC50 mammalian toxicity
Experimental: The human monocytic THP-1 cell line (ATCC® TIB-202) used for mammalian cytotoxicity evaluation was routinely cultured in roller bottles. Growth media consisted of RPMI 1640 supplemented with 10% FBS and 2 mM L-glutamine. Cells were maintained at 37 °C with 95% humidity in 5% CO2 in a shaking incubator.
All compounds selected for secondary IC50 screen were tested in parallel for mammalian cell viability using the CellTiter-Blue® Cell Viability Assay. THP1 cells were removed from culture and plated at 1 × 10^4 cells/well (40 µl) into 384-well assay ready plates and incubated at 37 °C, 5% CO2 for 48 h at 95% humidity. After the addition of CellTiter-Blue Viability reagent (8 µl of a 1:6 dilution) the assay plates were incubated for a further 2 h before fluorescence detected using a PerkinElmer EnVision™ plate reader.

[1] = test system: Wolbachia in C6/36 (wAlbB) cells; experiment: Confirmatory re-assessment in the insect cell screen (cell assay EC50); format: cell-based, Wolbachia pipientis wAlbB (in Aedes albopictus C6/36 cells); details: for EC50: Wolbachia, C6/36, insect cell screen, re-sourced or re-synthesised samples
From the text: To further validate the hit molecules from these 9 clusters, samples were sourced either from the AstraZeneca compound inventory or through re-synthesis. All 18 samples were characterised by nuclear magnetic resonance (NMR) and mass spectroscopy to confirm their chemical structures and by HPLC/LCMS to establish their purity (Supplementary Table 5 and Supplementary Data 1). These samples were also subject to confirmatory re-assessment in both the insect cell screen and Mf assays for anti-Wolbachia potency alongside confirmation of DMPK properties (LogD7.4, aqueous solubility in pH 7.4 PBS, human microsomal turnover, rat hepatocyte turnover and human plasma protein binding) (Fig. 4, Supplementary Figure 1 and Supplementary Table 4).
On day 0, a single cryovial was recovered and the cells washed before being transferred to a T225 cm^2 flask. After a 7-day recovery Wolbachia infection level (quality control (QC)) was checked by SYTO®11 DNA staining of both the host cell nuclei and intracellular Wolbachia. The end-point read out from the Operetta® high content imaging system (Perkin Elmer) was the percentage of cells infected with Wolbachia. This was obtained from cytoplasm texture analysis by the associated Harmony® software. Cells with a >50% of the population infected with Wolbachia were classed as having a good Wolbachia level and therefore used for screening through addition of 2000 cells per well into assay ready 384-well plates containing the test compounds. […] Each plate included on-board controls; vehicle/DMSO (total/maximum Wolbachia signal) or doxycycline 5 µM (null/minimum Wolbachia signal), resulting in single shot screening of 352 compounds per plate for the primary screen. […] QC plates were also created including full columns of the following controls; DMSO (total/max), 5 μM doxycycline (null/min), as well as 50 nM doxycycline (reference/medium Wolbachia signal). Daily batches contained ~150 compound plates in addition to the QC plates. Each compound plate was foil sealed before incubation for 7 days at 26 °C, 95% humidity and atmospheric air.

Rat hepatocyte clearance = format: in vitro ADME
From the text: (§1) The DMPK data used for triaging compounds, including LogD7.4, aqueous solubility, plasma protein binding, microsome and hepatocyte clearance measurements, were generated using the standard AstraZeneca UK high-throughput platform[37],[38].

[2] = Human microsome clearance; format: in vitro ADME; details: for microsomal CLint: human, human microsomes
From the text: as §1

LogD7.4 = format: physicochemical; details: pH 7.4
From the text: as §1

[3] = Aqueous solubility in pH 7.4 PBS; format: physicochemical; details: for solubility: PBS pH 7.4, aqueous buffer, pH 7.4 PBS, read-out: Aqueous solubility in pH7.4 PBS
From the text: as §1

[4] = Human plasma protein binding; format: in vitro ADME; details: plasma
From the text: as §1

[5] = test system: Wolbachia within Brugia malayi Mf; experiment: Anti-Wolbachia time-kill analysis (timed wash-out) in B. malayi Mf; format: cell-based; details: 10x EC50, 1 day exposure, wash, 6-day read out, normalised to vehicle control
From the text: To compare the dynamics of the in vitro phenotype of our hits with existing anti-Wolbachia therapies, we employed a timed wash-out strategy (Fig. 5) at 10x EC50 to establish the anti-Wolbachia time-kill kinetics of the selected chemotypes (1A–5A), using five replicates per compound. […].
Fig. 5 Anti-Wolbachia time-kill analysis. Representatives from the top five clusters (1A–5A), as well as established anti-Wolbachia antibacterials (doxycycline (white), minocycline (grey), rifampicin (black)) were assessed after exposure for 1 day and 2 days before washing and further incubation until the standard 6-day read out. wsp:gst ratio was normalised to the DMSO vehicle control resulting in a read out of mean percentage reduction from control. Doxycycline day 6 treatment represents the result for exposure to doxycycline at 5 µM for a full 6 days (no wash). The box extends from the 25th to the 75th percentile with the median presented by the central line. The whiskers are set at the minimum and maximum therefore indicating the range from five replicates. The cluster number is indicated by colour: cluster 1 (dark blue), 2 (magenta), 3 (teal), 4 (dark gold), and 5 (light blue)
The Mf were obtained by peritoneal lavage, using a catheter, of gerbils (Meriones unguiculatus) harbouring a patent infection of B. malayi. Mf were purified using a PD-10 desalting column (Fisher), centrifuged (311 RCF for 5 min at room temperature) before the addition of 8000 Mf/well of a 96-well plate (100 µl per well) in complete media consisting of RPMI supplemented with 10% FBS, 1% penicillin streptomycin and 1% amphotericin B. Compounds were diluted in complete media and 100 µl was added per well, providing a final concentration of 5 µM, with five replicates per compound. Each plate contained doxycycline (5 µM) and DMSO controls. After incubation at 37 °C for 6 days in 5% CO2, visual assessment of Mf motility was performed and scored from 0 to 4 per well (where 0 = no movement and 4 = highly motile). DNA extraction per sample was performed using the QIAmp DNA Mini Kit before quantitative PCR was performed to obtain the ratio of Wolbachia Surface Protein gene copy number (wsp) to Glutathione S-Transferase gene copy number (gst)[36]. The DNA was amplified using the primers as indicated in Supplementary Table 6.
The wsp:gst ratio data allowed for normalisation of the Wolbachia level to the Mf biomass for each well. The change in wsp:gst for each compound compared to the DMSO control was calculated before normalisation to the onboard doxycycline control to allow for inter-assay comparison.

Compound | IC50 (THP-1 cells) [nM] | EC50 [1] [nM] | Rat hepatocytes CLint (Rat hepatocyte clearance) [µl/min/1x106 cells] | microsomal CLint [2] [µL/min/mg] | logD (LogD7.4) | solubility [3] [µM] | fraction unbound [4] | Wolbachia reduction after a single day of exposure [5] | Insect cell screen activity (in words) [1] | Human microsomal stability (in words) [2] | Solubility (in words) [3] | Metabolic stability (in words) ([2]; in vitro, system not given)
Cc1nccc(N2CCC(C(=O)N(C)CCN(C)S(=O)(=O)c3ccc(Br)cc3)CC2)n1 [1A, N-(2-((4-bromo-N-methylphenyl)sulfonamido)ethyl)-N-methyl-1-(2-methylpyrimidin-4-yl)piperidine-4-carboxamide] | > 30600 | 192 | 31.1 | 211 | 2.6 | 663 (≈ 338 µg/mL) | 0.24 | 57–67% |  |  |  | 
COc1ccc(CC(=O)Nc2[nH]nc(C)c2-c2ccccc2)c(Cl)c1 [2A, 2-(2-chloro-4-methoxyphenyl)-N-(3-methyl-4-phenyl-1H-pyrazol-5-yl)acetamide] | > 30600 | 242 | 262.8 | 41.2 | 3.1 | 71 (≈ 25.3 µg/mL) | 0.021 | 57–67% |  |  |  | 
CC1COCCN1c1cc(OCc2ccccc2)nc(-c2nccn2C)n1 (stereo not drawn) [3A, 4-(6-(benzyloxy)-2-(1-methyl-1H-imidazol-2-yl)pyrimidin-4-yl)-3-methylmorpholine] | > 30600 | 662 | 147.0 | 59.7 | 3.3 | 538 (≈ 197 µg/mL) | 0.042 | 42% |  |  |  | 
CCc1ccc(CN2CCCC2c2nc(C(=O)N(C)C)cs2)s1 (stereo not drawn) [4A, 2-(1-((5-ethylthiophen-2-yl)methyl)pyrrolidin-2-yl)-N,N-dimethylthiazole-4-carboxamide] | > 30600 | 41 | > 300 | 92 | 3.2 | > 1000 | 0.078 | 57–67% | strong | poor | excellent | 
Cc1nc(C(=O)NC(C)c2ccc(F)cc2)c(NC(=O)Cc2ccccc2)[nH]1 (stereo not drawn) [5A, N-(1-(4-fluorophenyl)ethyl)-2-methyl-5-(2-phenylacetamido)-1H-imidazole-4-carboxamide] | > 30600 | 296 | 8.0 | 39.5 | 3.5 | 12 (≈ 4.57 µg/mL) | 0.073 | 57–67% |  |  | lower | moderate
